Results published in patent US9708314B2, “Heterocyclic amide compound” (NISSAN CHEMICAL INDUSTRIES, LTD., priority 2013, dated 2017).

Experiments:
Type in all cases: in vivo
[1] = system: Leptochloa chinensis; assay: Test Example 3: herbicidal effect by application to foliage (Wagner pot, water depth 0.1-0.5 cm); conditions: Nineteenth Table; application to foliage; application herbicide amount 320 g/ha
Method in brief: (§1)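 Post-emergence foliar application at a stated g/ha rate to plants grown 14 days from seed in alluvial soil, greenhouse 25–30 °C. Visual score after 3 weeks: 0 (≤5% effect) through 5 (≥90%).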

[2] = system: Echinochloa crus-galli var. crus-galli; assay: as above; conditions: Nineteenth Table; application to foliage; application herbicide amount 320 g/ha
Method in brief: as §1

[3] = system: Cyperus difformis; assay: as above; conditions: Nineteenth Table; application to foliage; application herbicide amount 320 g/ha
Method in brief: as §1

[4] = system: Digitaria ciliaris; assay: Test Example 4: herbicidal effect by application to foliage (diluvial soil, plastic box); conditions: Application herbicide amount 320 g/ha
Method in brief: (§2)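 Plants were grown in sterilized diluvial soil in a greenhouse at 25-30° C for 14 days, then sprayed on stems and leaves with water-diluted emulsion formulation at set rates in g/ha. Weed control and crop injury were scored 3 weeks after treatment on a 0-5 herbicidal-ratio scale, from 0 (≤5%) to 5 (≥90%).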

[5] = system: Setaria viridis; assay: as above; conditions: Application herbicide amount 320 g/ha
Method in brief: as §2

[6] = system: Galium spurium; assay: as above; conditions: Application herbicide amount 320 g/ha
Method in brief: as §2

[7] = system: Alopecurus myosuroides; assay: as above; conditions: Application herbicide amount 320 g/ha
Method in brief: as §2

[8] = system: Apera spica-venti.; assay: as above; conditions: Application herbicide amount 320 g/ha
Method in brief: as §2

[9] = system: Abutilon theophrasti; assay: as above; conditions: Application herbicide amount 320 g/ha
Method in brief: as §2

[10] = system: Echinochloa crus-galli var. crus-galli; assay: as above; conditions: Application herbicide amount 320 g/ha
Method in brief: as §2

[11] = system: Avena fatua; assay: as above; conditions: Application herbicide amount 320 g/ha
Method in brief: as §2

[12] = system: Veronica persica; assay: as above; conditions: Application herbicide amount 320 g/ha
Method in brief: as §2

[13] = system: Chenopodium album; assay: as above; conditions: Application herbicide amount 320 g/ha
Method in brief: as §2

[14] = system: Lolium multiflorum Lam.; assay: as above; conditions: Application herbicide amount 320 g/ha
Method in brief: as §2

[15] = system: directly sowed Oryza sativa; assay: Test Example 3: effect on crop by application to foliage (Wagner pot, water depth 0.1-0.5 cm); conditions: Nineteenth Table; application to foliage; application herbicide amount 320 g/ha
Method in brief: as §1

For CSCCc1nnc2c(C(=O)Nc3nnc(C)o3)ccc(C(F)(F)F)n12 [1-083], the “D (herbicidal effect grade)” value [1] was 5 (Herbicidal ratio of 90% or more (almost completely withered)), the “H (herbicidal effect grade)” value [2] was 5 (Herbicidal ratio of 90% or more (almost completely withered)) and the “E (herbicidal effect grade)” value [3] was 5 (Herbicidal ratio of 90% or more (almost completely withered)). The F [4] was 5 (Herbicidal ratio of 90% or more (almost completely withered)), the G [5] was 5 (Herbicidal ratio of 90% or more (almost completely withered)) and the Q [6] was 4 (Herbicidal ratio of 70% or more and less than 90%). For the same molecule, the J [7] was 0 (Herbicidal ratio of 5% or less (almost no effect)), the L [8] was 0 (Herbicidal ratio of 5% or less (almost no effect)) and the M [9] was 5 (Herbicidal ratio of 90% or more (almost completely withered)). For the same molecule, the H [10] was 5 (Herbicidal ratio of 90% or more (almost completely withered)), the I [11] was 3 (Herbicidal ratio of 40% or more and less than 70%) and the R [12] was 4 (Herbicidal ratio of 70% or more and less than 90%). The O [13] was 5 (Herbicidal ratio of 90% or more (almost completely withered)), the K [14] was 1 (Herbicidal ratio of 5% or more and less than 20%) and the “b (effect on crop grade)” value [15] was 2 (Herbicidal ratio of 20% or more and less than 40%).

For Cc1nnc(NC(=O)c2ccc(C(F)(F)F)n3c(CC[S+](C)[O-])nnc23)o1 (stereo not drawn) [1-084], the “D (herbicidal effect grade)” value [1] was 5 (Herbicidal ratio of 90% or more (almost completely withered)), the “H (herbicidal effect grade)” value [2] was 5 (Herbicidal ratio of 90% or more (almost completely withered)) and the “E (herbicidal effect grade)” value [3] was 5 (Herbicidal ratio of 90% or more (almost completely withered)). For the same molecule, the F [4] was 5 (Herbicidal ratio of 90% or more (almost completely withered)), the G [5] was 5 (Herbicidal ratio of 90% or more (almost completely withered)) and the Q [6] was 4 (Herbicidal ratio of 70% or more and less than 90%). For the same molecule, the J [7] was 0 (Herbicidal ratio of 5% or less (almost no effect)), the L [8] was 0 (Herbicidal ratio of 5% or less (almost no effect)) and the M [9] was 5 (Herbicidal ratio of 90% or more (almost completely withered)). The H [10] was 5 (Herbicidal ratio of 90% or more (almost completely withered)), the I [11] was 3 (Herbicidal ratio of 40% or more and less than 70%) and the R [12] was 5 (Herbicidal ratio of 90% or more (almost completely withered)). For the same molecule, the O [13] was 5 (Herbicidal ratio of 90% or more (almost completely withered)), the K [14] was 0 (Herbicidal ratio of 5% or less (almost no effect)) and the “b (effect on crop grade)” value [15] was 2 (Herbicidal ratio of 20% or more and less than 40%).

Cc1nnc(NC(=O)c2ccc(C(F)(F)F)n3c(N(C)c4ccccc4)nnc23)o1 [1-086] was tested, and the “D (herbicidal effect grade)” value [1] was 5 (Herbicidal ratio of 90% or more (almost completely withered)), the “H (herbicidal effect grade)” value [2] was 5 (Herbicidal ratio of 90% or more (almost completely withered)) and the “E (herbicidal effect grade)” value [3] was 5 (Herbicidal ratio of 90% or more (almost completely withered)). For the same molecule, the F [4] was 5 (Herbicidal ratio of 90% or more (almost completely withered)), the G [5] was 4 (Herbicidal ratio of 70% or more and less than 90%) and the Q [6] was 1 (Herbicidal ratio of 5% or more and less than 20%). The J [7] was 0 (Herbicidal ratio of 5% or less (almost no effect)), the L [8] was 0 (Herbicidal ratio of 5% or less (almost no effect)) and the M [9] was 5 (Herbicidal ratio of 90% or more (almost completely withered)). For the same molecule, the H [10] was 5 (Herbicidal ratio of 90% or more (almost completely withered)), the I [11] was 0 (Herbicidal ratio of 5% or less (almost no effect)) and the R [12] was 4 (Herbicidal ratio of 70% or more and less than 90%). The O [13] was 5 (Herbicidal ratio of 90% or more (almost completely withered)), the K [14] was 0 (Herbicidal ratio of 5% or less (almost no effect)) and the “b (effect on crop grade)” value [15] was 0 (Herbicidal ratio of 5% or less (almost no effect)).

With CCCSc1nnc2c(C(=O)Nc3nnc(C)o3)ccc(C(F)(F)F)n12 [1-087] the “D (herbicidal effect grade)” value [1] was 5 (Herbicidal ratio of 90% or more (almost completely withered)), the “H (herbicidal effect grade)” value [2] was 5 (Herbicidal ratio of 90% or more (almost completely withered)) and the “E (herbicidal effect grade)” value [3] was 5 (Herbicidal ratio of 90% or more (almost completely withered)). For the same molecule, the F [4] was 5 (Herbicidal ratio of 90% or more (almost completely withered)), the G [5] was 5 (Herbicidal ratio of 90% or more (almost completely withered)) and the Q [6] was 1 (Herbicidal ratio of 5% or more and less than 20%). The J [7] was 3 (Herbicidal ratio of 40% or more and less than 70%), the L [8] was 2 (Herbicidal ratio of 20% or more and less than 40%) and the M [9] was 5 (Herbicidal ratio of 90% or more (almost completely withered)). For the same molecule, the H [10] was 5 (Herbicidal ratio of 90% or more (almost completely withered)), the I [11] was 3 (Herbicidal ratio of 40% or more and less than 70%) and the R [12] was 4 (Herbicidal ratio of 70% or more and less than 90%). For the same molecule, the O [13] was 5 (Herbicidal ratio of 90% or more (almost completely withered)), the K [14] was 1 (Herbicidal ratio of 5% or more and less than 20%) and the “b (effect on crop grade)” value [15] was 1 (Herbicidal ratio of 5% or more and less than 20%).

For Cc1nnc(NC(=O)c2ccc(C(F)(F)F)n3c(NC(C)C)nnc23)o1 [1-090], the “D (herbicidal effect grade)” value [1] was 5 (Herbicidal ratio of 90% or more (almost completely withered)), the “H (herbicidal effect grade)” value [2] was 5 (Herbicidal ratio of 90% or more (almost completely withered)) and the “E (herbicidal effect grade)” value [3] was 5 (Herbicidal ratio of 90% or more (almost completely withered)). The F [4] was 5 (Herbicidal ratio of 90% or more (almost completely withered)), the G [5] was 3 (Herbicidal ratio of 40% or more and less than 70%) and the Q [6] was 1 (Herbicidal ratio of 5% or more and less than 20%). The J [7] was 1 (Herbicidal ratio of 5% or more and less than 20%), the L [8] was 1 (Herbicidal ratio of 5% or more and less than 20%) and the M [9] was 3 (Herbicidal ratio of 40% or more and less than 70%). The H [10] was 5 (Herbicidal ratio of 90% or more (almost completely withered)), the I [11] was 3 (Herbicidal ratio of 40% or more and less than 70%) and the R [12] was 5 (Herbicidal ratio of 90% or more (almost completely withered)). For the same molecule, the O [13] was 5 (Herbicidal ratio of 90% or more (almost completely withered)), the K [14] was 1 (Herbicidal ratio of 5% or more and less than 20%) and the “b (effect on crop grade)” value [15] was 0 (Herbicidal ratio of 5% or less (almost no effect)).

In the case of CC(C)Sc1nnc2c(C(=O)Nc3nnco3)ccc(C(F)(F)F)n12 [1-091], the “D (herbicidal effect grade)” value [1] was 5 (Herbicidal ratio of 90% or more (almost completely withered)), the “H (herbicidal effect grade)” value [2] was 5 (Herbicidal ratio of 90% or more (almost completely withered)) and the “E (herbicidal effect grade)” value [3] was 5 (Herbicidal ratio of 90% or more (almost completely withered)). For the same molecule, the F [4] was 5 (Herbicidal ratio of 90% or more (almost completely withered)), the G [5] was 5 (Herbicidal ratio of 90% or more (almost completely withered)) and the Q [6] was 4 (Herbicidal ratio of 70% or more and less than 90%). The J [7] was 2 (Herbicidal ratio of 20% or more and less than 40%), the L [8] was 3 (Herbicidal ratio of 40% or more and less than 70%) and the M [9] was 5 (Herbicidal ratio of 90% or more (almost completely withered)). The H [10] was 5 (Herbicidal ratio of 90% or more (almost completely withered)), the I [11] was 4 (Herbicidal ratio of 70% or more and less than 90%) and the R [12] was 5 (Herbicidal ratio of 90% or more (almost completely withered)). For the same molecule, the O [13] was 5 (Herbicidal ratio of 90% or more (almost completely withered)), the K [14] was 3 (Herbicidal ratio of 40% or more and less than 70%) and the “b (effect on crop grade)” value [15] was 0 (Herbicidal ratio of 5% or less (almost no effect)).
